Measured values from US20210145838A1, “SELECTIVE PDE4D INHIBITORS AGAINST DEMYELINATING DISEASES” (Universiteit Hasselt, priority 2018, published 2021).

Tested on: primary mouse oligodendrocyte precursor cells
Assay: In vitro differentiation of primary mouse OPCs (MBP/O4 immunostaining, MBP western blot)
Assay type: cell-based
Conditions: for Relative MBP protein expression (ratio MBP to β-actin), western blot: treatment day 0, 2, 4, 6 days, compared to vehicle; for MBP protein expression (IHC), dose dependence / MBP/O4 ratio, dose dependence: Roflumilast 5, 10 μM, Gebr32a 0.5, 1, 5 μM, BPN14770 0.1-10 μM, day 6
Procedure: (§1) FIG. 3: Inhibition of PDE4 by roflumilast induces differentiation of primary mouse oligodendrocyte precursor cells. Primary mouse oligodendrocyte precursor cells (OPCs) were isolated from p0 C57bl6 pups using the shake off method at day 0. Primary OPCs (150.000 cells/condition) were cultured and stimulated with vehicle (0.1% DMSO) or the PDE4 inhibitor Roflumilast (5 μM, or 10 μM) in 0.1% DMSO. Treatment was repeated on day 2 and day 4, applying a 40% medium change. Cells were fixated at day 6 and stained for O4, a late OPC marker and MBP, an oligodendrocyte marker.
(§2) For western blot, primary OPCs (500.000 cells/condition) were cultured and stimulated with vehicle (0.1% DMSO) or the PDE4 inhibitor Roflumilast (5 μM) in 0.1% DMSO. Treatment was repeated on day 2 and day 4, applying a 40% medium change. […] IHC Data were analyzed using a non-parametric Kruskal-Wallis test with Dunn's multiple comparisons test was performed; p<0.05=*; n=4/group. Western blot data were analyzed using a non-parametric Mann-Withney test; p<0.05; n=4/group.
as §1, with “4:” for “3:”, “PDE4D” for “PDE4”, “Gebr32a” for “roflumilast”, “Gebr32a (0.5” for “Roflumilast (5”, “μM, 1 μM” for “μM,”, “5” for “10”
as §2, with “PDE4D” for “PDE4”, “Gebr32a” for “Roflumilast”
FIG. 5: Inhibition of PDE4D by BPN14770 induces differentiation of primary mouse oligodendrocyte precursor cells. Primary mouse oligodendrocyte precursor cells (OPCs) were isolated from p0 C57bl6 pups using the shake off method at day 0. Primary OPCs (150.000 cells/condition) were cultured and stimulated with vehicle (PBS) or the PDE4D inhibitor BPN14770 (0.1 μM, 0.3 μM, 1 μM, 3 μM and 10 μM) in PBS. Treatment was repeated on day 2 and day 4, applying a 40% medium change. Cells were fixated at day 6 and stained for O4, a late OPC marker and MBP, an oligodendrocyte marker.
Mixed glial cultures were prepared from postnatal day 2 mouse cerebral cortices of C57BLl/6JOIaHsd animals and used to generate OPC-enriched glial cultures by separating the OPCs from the astrocyte monolayer by orbital shaking followed by purification by differential adhesion to plastic. Purified OPCs were seeded on poly-L-lysine (5 μg/ml; Sigma-Aldrich, Bornem, Belgium) coated plates or glass cover slides for staining. Isolated OPCs were plated in 24-well plates (150,000 cells/well Greiner Bio-One, Frickenhausen, Germany) for immunocytochemistry or in 6-well plates (500,000 cells/well Greiner Bio-One, Frickenhausen, Germany) for western blot analyses. OPCs were induced to differentiate for 6 days with Roflumilast (5 μM and 10 μM), Gebr32 (0.5, 1 and 5 μM) or vehicle (DMSO) in SATO-medium supplemented with 2% horse serum (Sigma-Aldrich). Treatment was repeated on day 2 and 4, applying a 40% medium change. All plates were at 37° C. and 8.5% C02.
Western blot was used to assess the total MBP production by OPC treated with roflumilast or Gebr32a compare to the vehicle group. Equal amount of protein sample was separated by 10% sodium dodecyl sulfate polyacrylamide gel electrophorese and blotted onto a PVDF membrane (GE Healthcare, Buckinghamshore, UK). […]

| SMILES | Relative MBP protein expression (ratio MBP to β-actin), western blot (5 μM) | MBP protein expression (IHC), dose dependence | MBP/O4 ratio, dose dependence | Relative MBP protein expression, IHC (5 μM, fixated at day 6, compared to vehicle) |
| --- | --- | --- | --- | --- |
| OC(CN1CCOCC1)Cn1ccc(-c2ccc(OC(F)F)c(OC3CCCC3)c2)n1 (stereo not shown) [Gebr32a] | three-fold increase | dose-dependent increase | dose-dependent increase |  |
| O=C(Nc1c(Cl)cncc1Cl)c1ccc(OC(F)F)c(OCC2CC2)c1 [roflumilast] | three-fold increased | increased dose-dependently | increased dose-dependently | three-fold increased |
